Measurements taken from PubChem BioAssay (NCI).
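Step 1: Grow cells in 96-well plates. Step 2: Expose to compound for 48 hours at 5 concentrations. Step 3: Interpolate endpoints linearly; if unreached, use highest concentration. TGI is the concentration that stops growth completely.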

What was measured:
Experiment in all cases: DTP human tumour cell line panel, 48 h
786-0 renal = test system: 786-0 renal
A498 renal = test system: A498 renal
A549 NSCLC = test system: A549 NSCLC
ACHN renal = test system: ACHN renal
CAKI-1 renal = test system: CAKI-1 renal
CCRF-CEM leukemia = test system: CCRF-CEM leukemia
COLO 205 colon = test system: COLO 205 colon
DU-145 prostate = test system: DU-145 prostate
EKVX NSCLC = test system: EKVX NSCLC
HCC-2998 colon = test system: HCC-2998 colon
HCT-116 colon = test system: HCT-116 colon
HCT-15 colon = test system: HCT-15 colon
HL-60(TB) leukemia = test system: HL-60(TB) leukemia
HOP-62 NSCLC = test system: HOP-62 NSCLC
HOP-92 NSCLC = test system: HOP-92 NSCLC
HS 578T breast = test system: HS 578T breast
HT29 colon = test system: HT29 colon
IGROV1 ovarian = test system: IGROV1 ovarian
K-562 leukemia = test system: K-562 leukemia
KM12 colon = test system: KM12 colon
LOX IMVI melanoma = test system: LOX IMVI melanoma
M14 melanoma = test system: M14 melanoma
MALME-3M melanoma = test system: MALME-3M melanoma
MCF7 breast = test system: MCF7 breast
MDA-MB-231 breast = test system: MDA-MB-231 breast
MDA-MB-435 = test system: MDA-MB-435
MDA-N = test system: MDA-N
MOLT-4 leukemia = test system: MOLT-4 leukemia
NCI-H226 lung = test system: NCI-H226 lung
NCI-H23 lung = test system: NCI-H23 lung
NCI-H460 lung = test system: NCI-H460 lung
NCI-H522 lung = test system: NCI-H522 lung
NCI/ADR-RES ovarian = test system: NCI/ADR-RES ovarian
OVCAR-3 ovarian = test system: OVCAR-3 ovarian
OVCAR-4 ovarian = test system: OVCAR-4 ovarian
OVCAR-5 ovarian = test system: OVCAR-5 ovarian
OVCAR-8 ovarian = test system: OVCAR-8 ovarian
PC-3 prostate = test system: PC-3 prostate
RPMI-8226 leukemia = test system: RPMI-8226 leukemia
RXF 393 renal = test system: RXF 393 renal
SF-268 CNS = test system: SF-268 CNS
SF-295 CNS = test system: SF-295 CNS
SF-539 CNS = test system: SF-539 CNS
SK-MEL-28 melanoma = test system: SK-MEL-28 melanoma
SK-MEL-5 melanoma = test system: SK-MEL-5 melanoma
SK-OV-3 ovarian = test system: SK-OV-3 ovarian
SN12C renal = test system: SN12C renal
SNB-19 CNS = test system: SNB-19 CNS
SNB-75 CNS = test system: SNB-75 CNS
SW-620 colon = test system: SW-620 colon
T-47D breast = test system: T-47D breast
TK-10 renal = test system: TK-10 renal
U251 CNS = test system: U251 CNS
UACC-257 melanoma = test system: UACC-257 melanoma
UACC-62 melanoma = test system: UACC-62 melanoma
UO-31 renal = test system: UO-31 renal
SK-MEL-2 melanoma = test system: SK-MEL-2 melanoma
SR leukemia = test system: SR leukemia

## CCOC(=O)c1sc2c(c1OC(=O)c1ccco1)c(=O)n(-c1ccccc1)c(=S)n2-c1ccccc1
786-0 renal
  TGI: > 100 µM
A498 renal
  TGI: 60.4 µM
A549 NSCLC
  TGI: > 100 µM
ACHN renal
  TGI: 83.8 µM
CAKI-1 renal
  TGI: 82.8 µM
CCRF-CEM leukemia
  TGI: > 100 µM
COLO 205 colon
  TGI: 38.1 µM
DU-145 prostate
  TGI: > 100 µM
EKVX NSCLC
  TGI: 55.4 µM
HCC-2998 colon
  TGI: > 100 µM
HCT-116 colon
  TGI: > 100 µM
HCT-15 colon
  TGI: > 100 µM
HL-60(TB) leukemia
  TGI: 52.2 µM
HOP-62 NSCLC
  TGI: > 100 µM
HOP-92 NSCLC
  TGI: 71.3 µM
HS 578T breast
  TGI: > 100 µM
HT29 colon
  TGI: > 100 µM
IGROV1 ovarian
  TGI: 36.3 µM
K-562 leukemia
  TGI: > 100 µM
KM12 colon
  TGI: > 100 µM
LOX IMVI melanoma
  TGI: 61.7 µM
M14 melanoma
  TGI: > 100 µM
MALME-3M melanoma
  TGI: 60.6 µM
MCF7 breast
  TGI: > 100 µM
MDA-MB-231 breast
  TGI: > 100 µM
MDA-MB-435
  TGI: 93 µM
MDA-N
  TGI: > 100 µM
MOLT-4 leukemia
  TGI: 49.3 µM
NCI-H226 lung
  TGI: 87.2 µM
NCI-H23 lung
  TGI: > 100 µM
NCI-H460 lung
  TGI: 45.5 µM
NCI-H522 lung
  TGI: > 100 µM
NCI/ADR-RES ovarian
  TGI: 57 µM
OVCAR-3 ovarian
  TGI: 76.9 µM
OVCAR-4 ovarian
  TGI: > 100 µM
OVCAR-5 ovarian
  TGI: > 100 µM
OVCAR-8 ovarian
  TGI: 70.8 µM
PC-3 prostate
  TGI: 50 µM
RPMI-8226 leukemia
  TGI: 78.5 µM
RXF 393 renal
  TGI: 62 µM
SF-268 CNS
  TGI: > 100 µM
SF-295 CNS
  TGI: > 100 µM
SF-539 CNS
  TGI: 97.9 µM
SK-MEL-28 melanoma
  TGI: > 100 µM
SK-MEL-5 melanoma
  TGI: 32.1 µM
SK-OV-3 ovarian
  TGI: > 100 µM
SN12C renal
  TGI: 84.4 µM
SNB-19 CNS
  TGI: > 100 µM
SNB-75 CNS
  TGI: > 100 µM
SW-620 colon
  TGI: > 100 µM
T-47D breast
  TGI: > 100 µM
TK-10 renal
  TGI: > 100 µM
U251 CNS
  TGI: > 100 µM
UACC-257 melanoma
  TGI: > 100 µM
UACC-62 melanoma
  TGI: 84.3 µM
UO-31 renal
  TGI: 2.71 µM

## Nc1nc2cc(COc3ccc(C(=O)O)cc3)ccc2nc1-c1ccccc1
A549 NSCLC
  TGI: > 10 µM
ACHN renal
  TGI: > 10 µM
CAKI-1 renal
  TGI: > 10 µM
CCRF-CEM leukemia
  TGI: > 10 µM
COLO 205 colon
  TGI: > 10 µM
DU-145 prostate
  TGI: > 10 µM
EKVX NSCLC
  TGI: > 10 µM
HCC-2998 colon
  TGI: > 10 µM
HCT-15 colon
  TGI: > 10 µM
HL-60(TB) leukemia
  TGI: > 10 µM
HOP-62 NSCLC
  TGI: > 10 µM
HOP-92 NSCLC
  TGI: > 10 µM
HS 578T breast
  TGI: > 10 µM
HT29 colon
  TGI: > 10 µM
IGROV1 ovarian
  TGI: > 10 µM
K-562 leukemia
  TGI: > 10 µM
KM12 colon
  TGI: > 10 µM
LOX IMVI melanoma
  TGI: > 10 µM
M14 melanoma
  TGI: > 10 µM
MCF7 breast
  TGI: > 10 µM
MDA-MB-231 breast
  TGI: > 10 µM
MDA-MB-435
  TGI: > 10 µM
MDA-N
  TGI: > 10 µM
MOLT-4 leukemia
  TGI: > 10 µM
NCI-H226 lung
  TGI: > 10 µM
NCI-H23 lung
  TGI: > 10 µM
NCI-H460 lung
  TGI: > 10 µM
NCI-H522 lung
  TGI: > 10 µM
OVCAR-3 ovarian
  TGI: > 10 µM
OVCAR-4 ovarian
  TGI: > 10 µM
OVCAR-5 ovarian
  TGI: > 10 µM
PC-3 prostate
  TGI: > 10 µM
RPMI-8226 leukemia
  TGI: > 10 µM
RXF 393 renal
  TGI: > 10 µM
SF-268 CNS
  TGI: > 10 µM
SF-295 CNS
  TGI: > 10 µM
SF-539 CNS
  TGI: > 10 µM
SK-MEL-2 melanoma
  TGI: > 10 µM
SK-MEL-28 melanoma
  TGI: > 10 µM
SK-MEL-5 melanoma
  TGI: > 10 µM
SK-OV-3 ovarian
  TGI: > 10 µM
SN12C renal
  TGI: > 10 µM
SNB-19 CNS
  TGI: > 10 µM
SNB-75 CNS
  TGI: > 10 µM
SR leukemia
  TGI: > 10 µM
SW-620 colon
  TGI: > 10 µM
T-47D breast
  TGI: > 10 µM
TK-10 renal
  TGI: > 10 µM
U251 CNS
  TGI: > 10 µM
UACC-257 melanoma
  TGI: > 10 µM
UACC-62 melanoma
  TGI: > 10 µM
UO-31 renal
  TGI: > 10 µM
